The text below walks through data of patent publication US6987127B2, “Regulation of NAD(P)H oxidase growth and transcription in melanoma cells” (Charlotte-Mecklenburg Hospital Authority, priority 2001, dated 2006).

The test system of data set [1] is cyclic-AMP responsive element (CRE). Conditions: M1619 cells, overnight, 10, 15, 20 μmoles/L; P<0.001 vs untreated.
Data set [2] concerns M1619 malignant melanoma cells. In words: Proliferation of cultured cells with oxidase inhibitors (MTT assay). The format is cell-based, human. The following applies: for Melanoma growth: M1619, data not shown.
The test system of data set [3] is NF-κB. The following applies: M1619 cells, 50 μmol/L overnight; P<0.001 by densitometry.
For data set [4], the system named is NF-κB p65. Conditions: M1619 cells, 50 μmol/L overnight.
The test system of data set [5] is p65 component of NF-κB. The following applies: M1619 cells, 50 μmol/L overnight.
Data set [6] has as its system AP-1. The following applies: M1619 cells, overnight, 10-20 μmoles/L.
For data set [7], the system named is OCT-1. The following applies: M1619 cells, overnight, 10-20 μmoles/L.
Data set [8] relates to IκBα. The following applies: M1619 cells, 25 μmoles/L overnight.
Data set [9] has as its system M1619 cells. Kind of data set: Proliferation after transfection of p22phox or NOX4 sense/antisense oligonucleotides (MTT assay). The format is cell-based, human. The following applies: 2 μg oligonucleotide, 6 hours transfection, 48 hours growth, P<0.01. (Tetrazolium dyes change colour on reduction, which living cells bring about.)
In data set [10] the test system is M1619 malignant melanoma cells. Conditions: Brar and co-workers; cited from earlier work.
For data set [11], the system named is H596 non-small-cell lung cancer cells. The following applies: Brar et al. (2001); cited from earlier work.

As a reminder, the inhibition is the percentage by which the read-out fell short of the control. As for `c1ccc2c(c1)[I+]c1ccccc1-2` [DPI, diphenylene iodonium], the “CRE DNA binding activity of nuclear protein” value in data set [1] was “inhibits CRE-binding activity in a dose-dependent manner”. Also, the inhibition at 50 µM in [2] (Homo sapiens, after 48 hours, highest dose (50 μmol/L), 10% FBS, P<0.001, read-out: Inhibition of M1619 malignant melanoma cell growth) was 86 ± 0.5%. Moreover, the “Constitutive NF-κB DNA binding” value in [3] is “greatly reduced”. Further, the “Constitutive nuclear translocation of NF-κB (anti-p65 staining in nuclei)” value in data set [4] is given as “reduces constitutive nuclear translocation of NF-κB”. Also, the “Immunoreactive p65 in nuclear protein” value in data set [5] is “reduces immunoreactive p65 in nuclear protein”. The “DNA binding to the AP-1 oligonucleotide consensus sequence” value in [6] is listed as “does not inhibit”. The “DNA binding to the OCT-1 oligonucleotide consensus sequence” value in data set [7] is listed as “does not inhibit”. The “Phosphorylation of the NF-κB inhibitor IκBα (serine 32)” value in data set [8] is “decreased phosphorylation”.
With `Oc1ncnc2[nH]ncc12` [allopurinol], in data set [2] (1 mmol/L), the Melanoma growth entry is on record as “unaffected”.
As to “NOX4 antisense oliogonucleotides: antisense 5′-AGCTCCTCCAGGACACAGCC-3′ based on NOX4 gene-specific sequence (listed as DNA, chemistry not given here)”, the “Subsequent growth compared with sense oligonucleotides” value in [9] is listed as “significantly reduced subsequent growth”.
For “p22^phox antisense oliogonucleotides: previously reported antisense 5′-GATCTGCCCCATGGTGAGGACC-3′ for p22phox mRNA (listed as DNA, chemistry not given here)”, the “Subsequent growth compared with sense oligonucleotides” value in data set [9] is given as “significantly reduced subsequent growth”.
On to `O=c1oc2ccccc2c(O)c1Cc1c(O)c2ccccc2oc1=O` [dicumarol], for which the “Cellular proliferation in M1619 malignant melanoma cells” value in data set [10] was “inhibition”. The “Growth of H596 non-small-cell lung cancer cells” value in data set [11] was “inhibited growth”.
`N=C(NCCC[C@H](N)C(=O)O)N[N+](=O)[O-]` [ω-nitro-L-arginine]: the Melanoma growth entry in data set [2] (100 μmol/L) is on record as “unaffected”.
